Assay results taken from publication PMC11784839, “Monoaminergic neurotransmitters are bimodal effectors of tau aggregation” (Science Advances, 2025).

Target: tau (Homo sapiens, UniProt P10636)
Assay: MCE Phenols Library screening, tau biosensor cell seeding assay (AvZ)
Format: cell-based
Conditions: for Z repl 1 / Z Repl 2: Z score; for Z repl 1 / raw data 1: replicate 1; for Z Repl 2 / raw data 2: replicate 2; for AvZ (average z score of seeding, SDs from the mean level of seeding): 10 μM phenol in cell cultures, AD brain homogenate preincubated 16 hours, two biological replicates, positive = catalyzes seeding, negative = inhibits
[1] = average Z score of the two replicates, tau seeding
[2] = average Z score of the two replicates, MCE Phenols Library screen
[3] = average puncta of the two replicates
[4] = average Z score of two replicates, Phenols Library screen
[5] = average Z score of the two replicates, tau biosensor seeding, MCE Phenols Library screen

Sequence of tau (P10636 623-695 limits assumed): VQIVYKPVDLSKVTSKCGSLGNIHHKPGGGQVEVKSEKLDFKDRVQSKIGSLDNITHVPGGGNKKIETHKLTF

| Compound | Z repl 1 | Z Repl 2 | av Z [1] | av puncta (average of raw data 1 and 2) | raw data 1 (puncta) | raw data 2 (puncta) | av Z [2] | AvZ (average z score of seeding, SDs from the mean level of seeding) | av puncta [3] | av Z [4] | raw data 1 (raw puncta) | raw data 2 (raw puncta) | av Z [5] |
| --- | --- | --- | --- | --- | --- | --- | --- | --- | --- | --- | --- | --- | --- |
| COc1ccc2cc1Oc1ccc(cc1)C[C@H]1c3cc(c(OC)cc3CCN1C)Oc1c(O)c(OC)cc3c1[C@@H](C2)N(C)CC3 [(R)-Fangchinoline] | 0.226 | 0.65 | 0.438 | 24385.2 | 29066.8 | 19703.5 | – | – | – | – | – | – | – |
| N[C@@H](Cc1ccc(O)c([N+](=O)[O-])c1)C(=O)O [3-Nitro-L-tyrosine] | 0.936 | 1.418 | – | 32750.4 | 37588.7 | 27912.2 | – | 1.177 | – | – | – | – | – |
| C[C@H]1CCCC(=O)CCC/C=C/c2cc(O)cc(O)c2C(=O)O1 [Zearalenone] | -0.335 | 0.423 | – | 19802.8 | 22326 | 17279.6 | – | – | – | 0.044 | – | – | – |
| COc1ccc(C(C)=O)c(O)c1O [2,3-Dihydroxy-4-methoxyacetophenone] | 0.385 | -0.124 | – | 21205.2 | 30969.9 | 11440.6 | – | 0.13 | – | – | – | – | – |
| O=C(/C=C/c1ccc(O)cc1)CC(=O)/C=C/c1ccc(O)cc1 [Bisdemethoxycucurmin] | 0.602 | -0.122 | 0.24 | 22516.9 | 33572.4 | 11461.3 | – | – | – | – | – | – | – |
| O=C(/C=C/c1ccc(O)c(O)c1/C=C/c1ccc(O)c(O)c1)O[C@H](Cc1ccc(O)c(O)c1)C(=O)O [Salvianolic acid A] | -2.14 | -1.185 | – | 383.467 | 661.17 | 105.765 | -1.663 | – | – | – | – | – | – |
| O=C1c2ccccc2C(=O)c2c1ccc(O)c2O [Alizarin] | -0.67 | -0.047 | – | – | – | – | -0.359 | – | 15284.3 | – | 18305.8 | 12262.8 | – |
| C[C@@H]1O[C@@H](Oc2c(-c3ccc(O)c(O)c3)oc3cc(O)cc(O)c3c2=O)[C@H](O)[C@H](O)[C@H]1O [Quercitrin] | -0.089 | -0.329 | – | – | – | – | -0.209 | – | 17263.5 | – | 25279.8 | 9247.27 | – |
| Oc1cc(O)cc(/C=C/c2ccc(O)cc2O)c1 [Oxyresveratrol] | 0.048 | -0.792 | – | – | – | – | -0.372 | – | 15614.1 | – | 26923.9 | 4304.18 | – |
| O=C(O)CNC(=O)c1cccc(O)c1 [3-Hydroxyhippuric acid] | 0.493 | -0.448 | – | 20125.5 | 32267.3 | 7983.73 | – | 0.023 | – | – | – | – | – |
| O=C(O)Cc1cc(O)ccc1O [Homogentisic acid] | -1.286 | -1.085 | – | 6046.8 | 10913.7 | 1179.87 | – | -1.185 | – | – | – | – | – |
| OCCc1ccccc1 [2-Phenylethanol] | 1.167 | 0.175 | – | 27499.2 | 40362.2 | 14636.1 | – | 0.671 | – | – | – | – | – |
| COc1cc([C@@H]2c3cc4c(cc3C[C@H]3COC(=O)[C@@H]32)OCO4)cc(OC)c1OC [Deoxypodophyllotoxin] | 3.44 | 3.821 | – | 60606.3 | 67641.6 | 53571.1 | – | – | – | – | – | – | 3.63 |
| O=C(O)[C@H]1O[C@@H](Oc2cc3oc(-c4ccc(O)cc4)cc(=O)c3c(O)c2O)[C@H](O)[C@@H](O)[C@@H]1O [Scutellarin] | -1.927 | -0.903 | – | 3169.77 | 3217.73 | 3121.8 | -1.415 | – | – | – | – | – | – |
| O=C(OCC1=C[C@@H](O)[C@@H]2C=CO[C@@H](O[C@@H]3O[C@H](CO)[C@@H](O)[C@H](O)[C@H]3O)[C@H]12)c1ccc(O)cc1 [Agnuside] | -0.301 | 0.292 | – | 19312.6 | 22737.6 | 15887.6 | – | – | – | -0.004 | – | – | – |
| COc1cc(O)cc(OC)c1 [3,5-Dimethoxyphenol] | 0.645 | -0.096 | – | 22916.8 | 34097.4 | 11736.1 | – | 0.275 | – | – | – | – | – |
| Oc1ccc([C@H]2Oc3cc(O)cc(O)c3C[C@H]2O)cc1 [(-)-Epiafzelechin] | -0.198 | 0.182 | – | 19340.4 | 23970.4 | 14710.3 | – | – | – | -0.008 | – | – | – |
| COc1cc2c(cc1O)C[C@H]1c3cc(O)c(OC)cc3CC[N@@+]1(C)C2.[Cl-] [Phellodendrine (chloride)] | 0.263 | -0.68 | – | – | – | – | -0.208 | – | 17505.3 | – | 29504.3 | 5506.25 | – |
| C=CCc1ccc(O)c(O)c1 [4-Allylcatechol] | -0.394 | -1.127 | – | 11173.7 | 21621.8 | 725.499 | – | -0.761 | – | – | – | – | – |
| CC(=O)O[C@H](CC=C(C)C)C1=CC(=O)c2c(O)ccc(O)c2C1=O [Acetylshikonin] | 0.563 | 1.037 | – | 28473.3 | 33102.4 | 23844.2 | – | – | – | – | – | – | 0.8 |

Second part, led by results:

| Z repl 1 | Z Repl 2 | av Z [1] | av puncta (average of raw data 1 and 2) | raw data 1 (puncta) | raw data 2 (puncta) | av Z [2] | AvZ (average z score of seeding, SDs from the mean level of seeding) | av puncta [3] | av Z [4] | Compound | raw data 1 (raw puncta) | raw data 2 (raw puncta) | av Z [5] |
| --- | --- | --- | --- | --- | --- | --- | --- | --- | --- | --- | --- | --- | --- |
| -1.092 | -0.742 | – | 9040.03 | 13242.9 | 4837.17 | -0.917 | – | – | – | COc1cc(O)ccc1/C=C/C(=O)c1ccc(O)cc1 [Echinatin] | – | – | – |
| 0.415 | -0.147 | 0.134 | 21263.5 | 31334.3 | 11192.7 | – | – | – | – | CC(C)=CCc1cc(-c2coc3cc(O)ccc3c2=O)ccc1O [Neobavaisoflavone] | – | – | – |
| -0.127 | -0.877 | – | – | 24825.4 | 3394.27 | – | -0.502 | 14109.8 | – | COC(=O)c1ccccc1O [Methyl Salicylate] | – | – | – |
| -0.371 | -0.506 | – | – | – | – | -0.438 | – | 14630.2 | – | COc1ccc(-c2oc3c(CC=C(C)C)c(O)cc(O)c3c(=O)c2O[C@@H]2O[C@@H](C)[C@H](O)[C@@H](O)[C@H]2O[C@@H]2O[C@H](CO)[C@@H](O)[C@H](O)[C@H]2O)cc1 [Sagittatoside A] | 21894.6 | 7365.88 | – |
| -1.271 | -0.404 | – | 9770.58 | 11089.3 | 8451.87 | -0.838 | – | – | – | O=C(/C=C/c1ccc(O)cc1)c1c(O)cc(O)cc1O [Naringenin chalcone] | – | – | – |
| -1.145 | -0.22 | – | – | 12607.7 | 10414 | – | -0.682 | 11510.9 | – | Thymopentin [reference compound] | – | – | – |
| -2.109 | -1.136 | – | 829.805 | 1030.3 | 629.309 | -1.623 | – | – | – | O=C(OC[C@H]1O[C@@H](OC(=O)c2cc(O)c(O)c(OC(=O)c3cc(O)c(O)c(O)c3)c2)[C@H](OC(=O)c2cc(O)c(O)c(OC(=O)c3cc(O)c(O)c(O)c3)c2)[C@@H](OC(=O)c2cc(O)c(O)c(OC(=O)c3cc(O)c(O)c(O)c3)c2)[C@@H]1OC(=O)c1cc(O)c(O)c(OC(=O)c2cc(O)c(O)c(O)c2)c1)c1cc(O)c(O)c(OC(=O)c2cc(O)c(O)c(O)c2)c1 [Tannic acid] | – | – | – |
| -0.244 | -0.19 | – | – | – | – | -0.217 | – | 17083.5 | – | COc1cc2oc3cc(O)c(OC)c(CC=C(C)C)c3c(=O)c2c(O)c1CC=C(C)C [beta-Mangostin] | 23425.5 | 10741.6 | – |
| 1.449 | 1.251 | – | 34936.6 | 43747.9 | 26125.3 | – | 1.35 | – | – | COc1cc(C(=O)OCCCCNC(=N)N)cc(OC)c1O [Leonurine] | – | – | – |
| 0.422 | 0.877 | – | 26774.2 | 31416.6 | 22131.8 | – | 0.65 | – | – | COc1cc(O)c(C(C)=O)c(OC)c1 [Xanthoxylin] | – | – | – |
| -0.355 | -0.816 | – | – | 22084.8 | 4048.5 | -0.586 | – | 13066.7 | – | Oc1ccc(/C=C/c2cc(O)cc(O)c2)cc1 [Resveratrol] | – | – | – |
| 0.022 | -0.802 | – | – | – | – | -0.39 | – | 15407.7 | – | O=c1cc(-c2ccc(O)cc2)oc2c([C@@H]3O[C@H](CO)[C@@H](O)[C@H](O)[C@H]3O)c(O)c([C@@H]3OC[C@@H](O)[C@H](O)[C@H]3O)c(O)c12 [Vicenin-1] | 26610.5 | 4204.9 | – |
